Where no end group is shown, it is not given here.
Tested on: T2 cell line for lysis by clone 5H17
Assay: 51Cr release assay: peptide sensitization of T2 for lysis by HA-2 specific CTL clone 5H17
Format: cell-based, human
Details: T2 cells

Sequence: YXGEVXVSV (X: residue not identified in the source) [synthetic peptide mixture, X stands for L or I]
- HA-2 specific sensitizing CTL activity (lysis of T2): resulted in lysis of T2

Source: US5770201A, “HA-2 antigenic peptide” (Rijsuniversiteit Te Leiden, priority 1994, dated 1998)
